Reference: ChEMBL document CHEMBL3507680, “University of Dundee, Gates Library screen for HepG2 cell viability”

assay: Human HepG2 cell viability assay in 384 well format; type: toxicity, cell-based; design: dose 125 nL, time 70.5 hour; concentration not given beside the values; conditions: HepG2 cells, read-out: Inhibition

| SMILES | cytotoxicity at 70.5 h [%] |
| --- | --- |
| O=C(NCC1(O)CCc2ccccc2C1)c1cccs1 (stereo unspecified) | -14.5 |
| O=C(Cn1c(=O)oc2ccccc21)NCC1(O)CCc2ccccc2C1 (stereo unspecified) | -2.64 |
| O=C(NCc1cccs1)NCC1(O)CCc2ccccc2C1 (stereo unspecified) | -5.04 |
| COCCN(Cc1ccoc1)C(=O)c1ccccn1 | -3.55 |
| COCCN(Cc1ccoc1)C(=O)c1c(F)cccc1F | -3.64 |
| CCOc1ccc(S(=O)(=O)N(CCOC)Cc2ccoc2)cc1F | -11.6 |
| O=S(=O)(NCCC(O)c1ccoc1)c1ccc(Cl)s1 (stereo unspecified) | -0.192 |
| COC(=O)c1sccc1S(=O)(=O)NCCC(O)c1ccoc1 (stereo unspecified) | -0.756 |
| O=C(NCCC(O)c1ccoc1)Nc1cccs1 (stereo unspecified) | -9.28 |
| COC1(CNC(=O)c2ccsc2)CCSC1 (stereo unspecified) | -13 |
| COC1(CNC(=O)CCCc2ccccc2)CCSC1 (stereo unspecified) | -0.238 |
| COC1(CNC(=O)c2ccc3nsnc3c2)CCSC1 (stereo unspecified) | -18.3 |
| COC1(CNC(=O)c2ccc(Cl)c(Cl)c2)CCSC1 (stereo unspecified) | -15 |
| COC1(CNS(=O)(=O)c2ccccc2Cl)CCSC1 (stereo unspecified) | -7.26 |
| COC1(CNC(=O)NCc2ccccc2)CCSC1 (stereo unspecified) | -9.9 |
| COC1(CNC(=O)NCCOc2ccccc2)CCSC1 (stereo unspecified) | 1.02 |
| Cc1cccnc1NC(=O)c1ccc(-n2cncn2)nn1 | 1.65 |
| O=C(NCCn1nc(-n2cncn2)ccc1=O)c1ccccc1Br | -5.84 |
| Cc1nn(C)c(C)c1S(=O)(=O)NCC1CCN(c2ccccn2)CC1 | 0.358 |
| Cn1cnc(S(=O)(=O)NCC2(O)CCc3ccccc3C2)c1 (stereo unspecified) | -7.71 |
| Cn1cc(C(=O)Nc2ccc3c(c2)N(C(=O)c2ccco2)CC3)nn1 | 0.738 |
| CC(=O)N1CCc2ccc(NC(=O)c3cn(C)nn3)cc2C1 | -5.41 |
| Cn1cc(C(=O)Nc2ccc3c(c2)CN(C(=O)C2CC2)CC3)nn1 | -8.54 |

| SMILES | cytotoxicity at 70.5 h [%] |
| --- | --- |
| Cn1cc(S(=O)(=O)NCCc2ccsc2)cn1 | -6.26 |
| COC(=O)N1CCC(CNS(=O)(=O)c2cnn(C)c2)CC1 | -0.269 |
| Cn1cc(C(=O)Nc2ccc(CC(=O)NCC(F)(F)F)cc2)nn1 | -6.55 |
| Cc1nc(N(C)C)nc(C)c1NC(=O)c1ccco1 | -3.93 |
| Cc1nc(N2CCOCC2)nc(C)c1NC(=O)COc1ccccc1 | -1.69 |
| COc1ccc(CC(=O)Nc2c(C)nc(N3CCOCC3)nc2C)cc1 | 1.49 |
| CCS(=O)(=O)NCc1nc(C)cc(N2CCCCC2)n1 | -7.45 |
| O=C(NCCNc1cc(N2CCCC2)cnn1)Nc1ccccc1F | -2.71 |
| COc1ncc(NC(=O)c2ccco2)c(OC)n1 | 7.73 |
| CCOc1ncc(NC(=O)c2ccco2)c(OCC)n1 | -0.599 |
| O=C(NCCn1ccc(-c2ccncc2)n1)C1CC1 | -12 |
| CCOCC(=O)NCCn1ccc(-c2ccccn2)n1 | -4.11 |
| O=S(=O)(NCCn1ccc(-c2ccccn2)n1)C1CC1 | -0.0974 |
| O=S(=O)(NCCn1ccc(-c2cccs2)n1)C1CC1 | -0.924 |
| Cc1nn(C)c(C)c1S(=O)(=O)NCCn1ccc(-c2cccs2)n1 | -0.512 |
| Cc1cccc(CS(=O)(=O)NCc2nn(C)c3c2CCCC3)c1 | -2.52 |
| O=C(CN1C(=O)CCC1=O)NCc1nn(C2CCCC2)c2c1CCCC2 | -2.19 |
| Cn1nc(CNC(=O)c2cccc(C(F)(F)F)c2)c2c1CCOC2 | -3.96 |
| Cc1ccnc(OC[C@]23COC[C@H]2CN(C(=O)Cc2ccsc2)C3)n1 | -7.56 |
| O=C(NCCc1ccncc1)[C@H]1C[C@@H]2CCN(c3nncs3)C[C@H]2O1 | -11.9 |
| Cc1cccc(CN2CC3(CCN(C(N)=O)CC3)OCC2=O)n1 | -10.4 |
| COCC(=O)N1CCC2(COCc3c(C)nc(N(C)C)nc32)C1 (stereo unspecified) | 15.4 |
| CC(C)COCC1CN(Cc2ccco2)Cc2ncn(C)c21 (stereo unspecified) | -6.93 |

| SMILES | cytotoxicity at 70.5 h [%] |
| --- | --- |
| CC(C)COCC1CN(Cc2ccsc2)Cc2ncn(C)c21 (stereo unspecified) | -9.98 |
| CCc1cccc(NC(=O)N2CCn3cnc(COC)c3C2)c1 | -14.2 |
| Cc1ccc(N2CC[C@H]3OCC[C@@]3(C(=O)N(C)C)C2)nn1 | -8.34 |
| CCN1CCC2(COCc3c(C)nc(N(C)C)nc32)C1 (stereo unspecified) | -8.16 |
| CC(C)CN1C(=O)C2(CCN(Cc3ccc(F)cc3)C2)c2ccccc21 (stereo unspecified) | -0.325 |
| COCc1cncc2c1CCN(Cc1cccnc1)C2 | -3.24 |
| COCCO[C@H]1CCN(c2ccc(C)nn2)[C@H]1Cc1cnn(C)c1 | -3.27 |
| CC(=O)NCC(=O)N1CCOC2(CCCN(c3ccc(C)nn3)C2)C1 (stereo unspecified) | -11.9 |
| CN1CCN(C(=O)[C@H]2C[C@H]3[C@H](CCN3Cc3nccs3)O2)CC1 | -10.8 |
| CC(=O)N1CC(=O)N(c2cnn(C)c2)CC12CCN(Cc1ccco1)C2 (stereo unspecified) | -16.8 |
| Cc1nocc1C(=O)N1CCc2c(CN(C)C)nn(C)c2C1 | -13.6 |
| CC(C)(C)C(=O)N1CC[C@@H]2[C@H](CC1)N(S(C)(=O)=O)CCS2(=O)=O | -10.7 |
| Cc1cccc(NC(=O)N2CCC3(CC(=O)N(c4ccsc4)C3)C2)c1 (stereo unspecified) | -5.62 |
| CNC(=O)CN1CCOCC2(CCCN(Cc3ccoc3)C2)C1 (stereo unspecified) | -8.87 |
| CC(=O)N1CC(=O)N(c2ccsc2)CC12CCN(Cc1ccoc1)C2 (stereo unspecified) | -11.1 |
| CN1CCN(C(=O)[C@H]2CC[C@@H]3[C@@H](CCN3Cc3nccs3)O2)CC1 | -13.2 |
| O=C(NC1CCCC1)C1Cc2nc(-c3ccsc3)sc2N1CC1CC1 (stereo unspecified) | 9.52 |
| O=C(Cn1ccc2ccccc21)NCc1ccc(C(=O)O)cc1 | -10.6 |
| COc1cc(OC)c(C2SCC(=O)Nc3n[nH]cc32)cc1OC (stereo unspecified) | -1.01 |
| Cc1cccnc1NC(=O)CC1(Cn2cnnn2)CCCCC1 | -7.45 |
| O=C(COc1coc(CN2CCCCCC2)cc1=O)c1ccccc1 | 25.4 |
| Cc1cccn2c(=O)cc(OC(=O)c3ccccc3)nc12 | -17.1 |
| O=C1N(Cc2cccnc2)CCC12CCCNC2 (stereo unspecified) | 10.6 |

| SMILES | cytotoxicity at 70.5 h [%] |
| --- | --- |
| CCOc1ccc(Cl)cc1C1CCCN1 (stereo unspecified) | -16.4 |
| Cc1cccc(NC(=O)N2CCCn3cnc(CN(C)C(C)C)c3C2)c1 | 17.2 |
| Cn1ccnc1CN1CCC(F)(F)C2(CCN(c3cnccn3)C2)C1 (stereo unspecified) | 19.3 |
| O=S(=O)(C1CC1)N1CCO[C@H]2[C@@H](Oc3ncccc3F)CC[C@@H]21 | -8.02 |
| CC(C)CN1C(=O)C2(CCN(Cc3ccsc3)C2)c2ccccc21 (stereo unspecified) | -13 |
| CNC(=O)[C@@H]1CCO[C@@H]2CCN(CCc3ccccc3)C[C@H]21 | -3.11 |
| CCCS(=O)(=O)N1CCO[C@H]2[C@@H](Oc3cccnc3)CC[C@@H]21 | -1.96 |
| CN(C)c1ncc(-c2cc(C(=O)NCCO)n(CC3CC3)c2)cn1 | -6 |
| CCCS(=O)(=O)N1C[C@@H](Oc2ncccc2F)[C@H]2OCCC[C@H]21 | -10.6 |
| O=C(NCC1CC1)[C@@H]1CCO[C@@H]2CCN(CCc3ccccc3)C[C@H]21 | -5.09 |
| CN(C)C(=O)[C@@H]1C[C@@H]2[C@@H](CCN2Cc2nccs2)O1 | -5.24 |
| CC1=N[C@@]2(CC[C@@H]3CN(Cc4ccc(C)cc4)C[C@@H]32)C(=O)N1CC1CC1 | -12.4 |
| O=C(c1cnccn1)N1CCOC2(CCCN(c3ncccc3F)C2)C1 (stereo unspecified) | -16.1 |
| O=C(CC1CCCC1)N1C[C@H](Oc2cccnc2)[C@H]2OCCC[C@H]21 | -16.9 |
| O=C([C@H]1CCCO1)N1CCOC2(CCCN(c3ncccc3F)C2)C1 (stereo partly specified) | -15.7 |
| CO[C@H]1CN(C(=O)c2cccnc2)[C@@H]2CCCO[C@H]12 | -11.9 |
| COCC1Cn2nnc(-c3cnn(C)c3)c2CN1Cc1cccs1 (stereo unspecified) | -12.1 |
| CO[C@H]1CC[C@H]2[C@H]1OCCN2Cc1ccc(F)cc1 | 9.89 |
| O=C(Nc1cccnc1)C1Cc2nc(-c3ccsc3)sc2N1CC1CC1 (stereo unspecified) | 15.3 |
| Cc1ccccc1C(=O)N1C[C@@H]2OCCN(c3ncccn3)[C@@H]2C1 | 17.4 |
| CC(C)C(=O)N1CCC[C@]2(C(=O)N(C)C)CN(c3ccccn3)C[C@@H]2C1 | 11.4 |
| COc1cc(N2CC[C@@H]3O[C@H](C(=O)N(C)C)C[C@@H]32)ncn1 | -17.2 |
| CCC(=O)N1CCC[C@]2(C(=O)N(C)C)CN(c3ccccn3)C[C@@H]2C1 | -9.46 |

| SMILES | cytotoxicity at 70.5 h [%] |
| --- | --- |
| Fc1ccc(CN2CCC3(CC2)CC(c2cccnc2)CO3)cc1 (stereo unspecified) | -0.689 |
| CN1C(Cn2cccn2)C[C@@H]2CN(C(=O)c3cccc(C#N)c3)CC[C@@H]21 (stereo partly specified) | -7.79 |
| CC(C)N(C)Cc1cnc2n1CCN(Cc1ccco1)C2 | -14 |
| CNC(=O)CN1CCOCC2(CCCN(CCc3ccccc3)C2)C1 (stereo unspecified) | -10.9 |
| CCN1CCn2c(C)cnc2C12CCN(C(=O)C(C)C)CC2 | -15.2 |
| CN(C)C(=O)COCc1cncc2c1CCN(Cc1ccccn1)C2 | -7.2 |
| CNC(=O)CN1CCOCC2(CCCN(Cc3ccc(F)cc3)C2)C1 (stereo unspecified) | -9.75 |
| Cc1nc(CN2CCC3(CCN(Cc4cnn(C)c4)CC3)C2=O)cs1 | 10.4 |
| CCOCC1c2c(cnn2CC2CC2)CCN1Cc1nccs1 (stereo unspecified) | -9.55 |
| CN(Cc1ccco1)C1COC2(CCN(Cc3nccs3)CC2)C1 (stereo unspecified) | -21.8 |
| c1cncc(OCC2CN(Cc3nccs3)Cc3nccn3C2)c1 (stereo unspecified) | -15.5 |
| Cc1nc(CN2CCC3(CCCN(Cc4ccoc4)C3)C2=O)cs1 (stereo unspecified) | 11.4 |
| O=C(c1cccnc1)N1Cc2nccn2CC(COc2cccnc2)C1 (stereo unspecified) | -15.2 |
| FC1(F)CCN(Cc2cccnc2)CC12CCN(c1cnccn1)C2 (stereo unspecified) | -12.8 |
| FC1(F)CCN(Cc2ccncc2)CC12CCN(c1cnccn1)C2 (stereo unspecified) | -8.66 |
| c1ccc(CN2CCc3c(COCC4CC4)cncc3C2)nc1 | -11.4 |
| CN(C)CCOCc1cncc2c1CCN(Cc1ccccn1)C2 | -10.9 |
| O=C(CN(C1=NCCCC1)c1ccccc1)c1ccccc1 | 25.2 |
| CCOc1ccc(N(CC(=O)c2ccccc2)C2=NCCCCC2)cc1 | -9.89 |
